Reference: PMC12300041, “Tricyclic Isatin Derivatives as Anti-Inflammatory Compounds with High Kinase Binding Affinity” (Molecules, 2025)

Legend:
Test in all cases: KINOMEscan
Format in all cases: binding
ACVR1 = biological target: T1, ACVR1 (Homo sapiens, UniProt Q04771)
T1 construct: purchased Eurofins DiscoverX KINOMEscan
In short: (§1)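 Binding reactions proceed for 1 h at room temperature. Kinase not bound by compound is captured on immobilized affinity ligand and quantified by qPCR; Kd is fitted over 12 half-log concentrations, top 33 μM.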

ACVR2B = biological target: T2, ACVR2B (Homo sapiens, UniProt Q13705)
T2 construct: purchased Eurofins DiscoverX KINOMEscan
In short: as §1

AKT3 = biological target: T3, AKT3 (Homo sapiens, UniProt Q9Y243)
T3 construct: purchased Eurofins DiscoverX KINOMEscan
In short: as §1

ARK5 = biological target: T4, ARK5 (Homo sapiens, UniProt O60285)
T4 construct: purchased Eurofins DiscoverX KINOMEscan
In short: as §1

AURKB = biological target: T5, AURKB (Homo sapiens, UniProt Q96GD4)
T5 construct: purchased Eurofins DiscoverX KINOMEscan
In short: as §1

CAMK4 = biological target: T6, CAMK4 (Homo sapiens, UniProt Q16566)
T6 construct: purchased Eurofins DiscoverX KINOMEscan
In short: as §1

CDK4-cyclinD1 = biological target: T7, CDK4-cyclinD1 (Homo sapiens, UniProt P11802)
T7 construct: purchased Eurofins DiscoverX KINOMEscan
In short: as §1

CDK7 = biological target: T8, CDK7 (Homo sapiens, UniProt P50613)
T8 construct: purchased Eurofins DiscoverX KINOMEscan
In short: as §1

DDR1 = biological target: T9, DDR1 (Homo sapiens, UniProt Q08345)
T9 construct: purchased Eurofins DiscoverX KINOMEscan
In short: as §1

DDR2 = biological target: T10, DDR2 (Homo sapiens, UniProt Q16832)
T10 construct: purchased Eurofins DiscoverX KINOMEscan
In short: as §1

DRAK2 = biological target: T11, DRAK2 (Homo sapiens, UniProt O94768)
T11 construct: purchased Eurofins DiscoverX KINOMEscan
In short: as §1

EPHA3 = biological target: T12, EPHA3 (Homo sapiens, UniProt P29320)
T12 construct: purchased Eurofins DiscoverX KINOMEscan
In short: as §1

EPHB4 = biological target: T13, EPHB4 (Homo sapiens, UniProt P54760)
T13 construct: purchased Eurofins DiscoverX KINOMEscan
In short: as §1

ERK4 = biological target: T14, ERK4 (Homo sapiens, UniProt P31152)
T14 construct: purchased Eurofins DiscoverX KINOMEscan
In short: as §1

FLT3-autoinhibited = biological target: T15, FLT3-autoinhibited (Homo sapiens, UniProt P36888)
T15 construct: purchased Eurofins DiscoverX KINOMEscan
In short: as §1

GRK2 = biological target: T16, GRK2 (Homo sapiens, UniProt P25098)
T16 construct: purchased Eurofins DiscoverX KINOMEscan
In short: as §1

IRAK3 = biological target: T17, IRAK3 (Homo sapiens, UniProt Q9Y616)
T17 construct: purchased Eurofins DiscoverX KINOMEscan
In short: as §1

LATS2 = biological target: T18, LATS2 (Homo sapiens, UniProt Q9NRM7)
T18 construct: purchased Eurofins DiscoverX KINOMEscan
In short: as §1

LRRK2 (G2019S) = biological target: T19, LRRK2 (G2019S) (Homo sapiens, UniProt Q5S007, G2019S)
T19 construct: purchased Eurofins DiscoverX KINOMEscan
In short: as §1

MARK4 = biological target: T20, MARK4 (Homo sapiens, UniProt Q96L34)
T20 construct: purchased Eurofins DiscoverX KINOMEscan
In short: as §1

MEK3 = biological target: T21, MEK3 (Homo sapiens, UniProt P46734)
T21 construct: purchased Eurofins DiscoverX KINOMEscan
In short: as §1

MEK6 = biological target: T22, MEK6 (Homo sapiens, UniProt P52564)
T22 construct: purchased Eurofins DiscoverX KINOMEscan
In short: as §1

MET (Y1235D) = biological target: T23, MET (Y1235D) (Homo sapiens, UniProt P08581, Y1235D)
T23 construct: purchased Eurofins DiscoverX KINOMEscan
In short: as §1

MST1R = biological target: T24, MST1R (Homo sapiens, UniProt Q04912)
T24 construct: purchased Eurofins DiscoverX KINOMEscan
In short: as §1

MYO3A = biological target: T25, MYO3A (Homo sapiens, UniProt Q8NEV4)
T25 construct: purchased Eurofins DiscoverX KINOMEscan
In short: as §1

NDR2 = biological target: T26, NDR2 (Homo sapiens, UniProt Q9Y2H1)
T26 construct: purchased Eurofins DiscoverX KINOMEscan
In short: as §1

NEK2 = biological target: T27, NEK2 (Homo sapiens, UniProt P51955)
T27 construct: purchased Eurofins DiscoverX KINOMEscan
In short: as §1

PAK4 = biological target: T28, PAK4 (Homo sapiens, UniProt O96013)
T28 construct: purchased Eurofins DiscoverX KINOMEscan
In short: as §1

PCTK1 = biological target: T29, PCTK1 (Homo sapiens, UniProt Q00536)
T29 construct: purchased Eurofins DiscoverX KINOMEscan
In short: as §1

PCTK2 = biological target: T30, PCTK2 (Homo sapiens, UniProt Q00537)
T30 construct: purchased Eurofins DiscoverX KINOMEscan
In short: as §1

PIK3C2G = biological target: T31, PIK3C2G (Homo sapiens, UniProt O75747)
T31 construct: purchased Eurofins DiscoverX KINOMEscan
In short: as §1

PIM3 = biological target: T32, PIM3 (Homo sapiens, UniProt Q86V86)
T32 construct: purchased Eurofins DiscoverX KINOMEscan
In short: as §1

PKAC-α = biological target: T33, PKAC-α (Homo sapiens, UniProt P17612)
T33 construct: purchased Eurofins DiscoverX KINOMEscan
In short: as §1

PYK2 = biological target: T34, PYK2 (Homo sapiens, UniProt Q14289)
T34 construct: purchased Eurofins DiscoverX KINOMEscan
In short: as §1

RIPK5 = biological target: T35, RIPK5 (Homo sapiens, UniProt Q6XUX3)
T35 construct: purchased Eurofins DiscoverX KINOMEscan
In short: as §1

SNARK = biological target: T36, SNARK (Homo sapiens, UniProt Q9H093)
T36 construct: purchased Eurofins DiscoverX KINOMEscan
In short: as §1

SRC = biological target: T37, SRC (Homo sapiens, UniProt P12931)
T37 construct: purchased Eurofins DiscoverX KINOMEscan
In short: as §1

TAOK2 = biological target: T38, TAOK2 (Homo sapiens, UniProt Q9UL54)
T38 construct: purchased Eurofins DiscoverX KINOMEscan
In short: as §1

TNIK = biological target: T39, TNIK (Homo sapiens, UniProt Q9UKE5)
T39 construct: purchased Eurofins DiscoverX KINOMEscan
In short: as §1

WNK2 = biological target: T40, WNK2 (Homo sapiens, UniProt Q9Y3S1)
T40 construct: purchased Eurofins DiscoverX KINOMEscan
In short: as §1

YES = biological target: T41, YES (Homo sapiens, UniProt P07947)
T41 construct: purchased Eurofins DiscoverX KINOMEscan
In short: as §1

T3 sequence (Q9Y243 whole entry): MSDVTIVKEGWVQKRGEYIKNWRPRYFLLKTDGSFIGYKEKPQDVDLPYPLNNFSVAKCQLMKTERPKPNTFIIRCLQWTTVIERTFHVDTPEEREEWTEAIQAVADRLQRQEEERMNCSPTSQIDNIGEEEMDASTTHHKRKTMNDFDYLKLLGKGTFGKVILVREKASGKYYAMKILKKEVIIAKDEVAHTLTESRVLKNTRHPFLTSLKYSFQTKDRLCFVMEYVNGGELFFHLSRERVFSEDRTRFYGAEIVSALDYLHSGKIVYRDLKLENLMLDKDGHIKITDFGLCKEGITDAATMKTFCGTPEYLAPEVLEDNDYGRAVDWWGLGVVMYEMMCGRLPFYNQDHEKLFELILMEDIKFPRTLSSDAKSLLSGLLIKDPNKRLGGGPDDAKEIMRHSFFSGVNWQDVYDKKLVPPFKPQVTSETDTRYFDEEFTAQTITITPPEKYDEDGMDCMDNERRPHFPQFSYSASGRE
T34 sequence (Q14289 whole entry): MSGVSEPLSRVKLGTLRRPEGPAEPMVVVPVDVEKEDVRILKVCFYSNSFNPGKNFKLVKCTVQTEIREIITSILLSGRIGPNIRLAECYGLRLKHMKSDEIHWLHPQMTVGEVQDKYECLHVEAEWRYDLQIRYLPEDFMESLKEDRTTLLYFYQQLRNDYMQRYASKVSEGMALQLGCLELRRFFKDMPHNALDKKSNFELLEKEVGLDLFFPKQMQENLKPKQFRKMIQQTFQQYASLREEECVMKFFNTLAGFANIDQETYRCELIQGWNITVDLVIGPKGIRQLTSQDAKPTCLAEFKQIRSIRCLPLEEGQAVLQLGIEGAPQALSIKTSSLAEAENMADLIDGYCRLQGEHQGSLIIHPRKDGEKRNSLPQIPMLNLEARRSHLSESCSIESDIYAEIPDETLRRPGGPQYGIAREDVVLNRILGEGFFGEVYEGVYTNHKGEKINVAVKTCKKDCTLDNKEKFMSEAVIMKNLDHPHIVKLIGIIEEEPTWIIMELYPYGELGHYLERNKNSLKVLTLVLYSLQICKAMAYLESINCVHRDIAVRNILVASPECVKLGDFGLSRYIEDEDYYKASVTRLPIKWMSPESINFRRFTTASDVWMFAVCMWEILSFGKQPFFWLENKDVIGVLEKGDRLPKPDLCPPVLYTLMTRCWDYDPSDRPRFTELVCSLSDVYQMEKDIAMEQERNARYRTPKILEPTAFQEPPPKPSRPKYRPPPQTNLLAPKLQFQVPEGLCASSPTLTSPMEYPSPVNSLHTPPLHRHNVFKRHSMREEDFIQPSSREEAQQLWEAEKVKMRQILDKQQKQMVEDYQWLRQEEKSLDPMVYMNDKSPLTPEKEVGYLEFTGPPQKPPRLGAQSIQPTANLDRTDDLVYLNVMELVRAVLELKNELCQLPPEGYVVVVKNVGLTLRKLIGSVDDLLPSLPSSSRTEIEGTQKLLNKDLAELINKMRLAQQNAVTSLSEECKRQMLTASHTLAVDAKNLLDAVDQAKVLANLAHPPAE
T17 sequence (Q9Y616 whole entry): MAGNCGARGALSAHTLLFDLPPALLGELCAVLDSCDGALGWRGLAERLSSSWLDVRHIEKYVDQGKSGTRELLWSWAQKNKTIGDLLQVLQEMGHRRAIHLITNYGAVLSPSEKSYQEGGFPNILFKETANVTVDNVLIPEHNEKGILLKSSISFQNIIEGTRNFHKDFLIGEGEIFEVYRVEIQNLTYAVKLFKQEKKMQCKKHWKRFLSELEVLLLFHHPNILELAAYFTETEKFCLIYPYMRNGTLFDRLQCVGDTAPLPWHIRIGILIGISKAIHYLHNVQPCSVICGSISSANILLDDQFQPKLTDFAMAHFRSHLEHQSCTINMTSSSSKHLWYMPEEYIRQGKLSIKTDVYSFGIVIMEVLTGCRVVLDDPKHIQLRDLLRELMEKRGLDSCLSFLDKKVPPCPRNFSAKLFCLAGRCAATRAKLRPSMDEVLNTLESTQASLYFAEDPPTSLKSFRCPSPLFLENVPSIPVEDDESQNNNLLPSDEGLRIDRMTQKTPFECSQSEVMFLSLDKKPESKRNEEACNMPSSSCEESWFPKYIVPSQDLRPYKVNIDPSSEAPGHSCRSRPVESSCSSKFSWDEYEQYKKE
T25 sequence (Q8NEV4 whole entry): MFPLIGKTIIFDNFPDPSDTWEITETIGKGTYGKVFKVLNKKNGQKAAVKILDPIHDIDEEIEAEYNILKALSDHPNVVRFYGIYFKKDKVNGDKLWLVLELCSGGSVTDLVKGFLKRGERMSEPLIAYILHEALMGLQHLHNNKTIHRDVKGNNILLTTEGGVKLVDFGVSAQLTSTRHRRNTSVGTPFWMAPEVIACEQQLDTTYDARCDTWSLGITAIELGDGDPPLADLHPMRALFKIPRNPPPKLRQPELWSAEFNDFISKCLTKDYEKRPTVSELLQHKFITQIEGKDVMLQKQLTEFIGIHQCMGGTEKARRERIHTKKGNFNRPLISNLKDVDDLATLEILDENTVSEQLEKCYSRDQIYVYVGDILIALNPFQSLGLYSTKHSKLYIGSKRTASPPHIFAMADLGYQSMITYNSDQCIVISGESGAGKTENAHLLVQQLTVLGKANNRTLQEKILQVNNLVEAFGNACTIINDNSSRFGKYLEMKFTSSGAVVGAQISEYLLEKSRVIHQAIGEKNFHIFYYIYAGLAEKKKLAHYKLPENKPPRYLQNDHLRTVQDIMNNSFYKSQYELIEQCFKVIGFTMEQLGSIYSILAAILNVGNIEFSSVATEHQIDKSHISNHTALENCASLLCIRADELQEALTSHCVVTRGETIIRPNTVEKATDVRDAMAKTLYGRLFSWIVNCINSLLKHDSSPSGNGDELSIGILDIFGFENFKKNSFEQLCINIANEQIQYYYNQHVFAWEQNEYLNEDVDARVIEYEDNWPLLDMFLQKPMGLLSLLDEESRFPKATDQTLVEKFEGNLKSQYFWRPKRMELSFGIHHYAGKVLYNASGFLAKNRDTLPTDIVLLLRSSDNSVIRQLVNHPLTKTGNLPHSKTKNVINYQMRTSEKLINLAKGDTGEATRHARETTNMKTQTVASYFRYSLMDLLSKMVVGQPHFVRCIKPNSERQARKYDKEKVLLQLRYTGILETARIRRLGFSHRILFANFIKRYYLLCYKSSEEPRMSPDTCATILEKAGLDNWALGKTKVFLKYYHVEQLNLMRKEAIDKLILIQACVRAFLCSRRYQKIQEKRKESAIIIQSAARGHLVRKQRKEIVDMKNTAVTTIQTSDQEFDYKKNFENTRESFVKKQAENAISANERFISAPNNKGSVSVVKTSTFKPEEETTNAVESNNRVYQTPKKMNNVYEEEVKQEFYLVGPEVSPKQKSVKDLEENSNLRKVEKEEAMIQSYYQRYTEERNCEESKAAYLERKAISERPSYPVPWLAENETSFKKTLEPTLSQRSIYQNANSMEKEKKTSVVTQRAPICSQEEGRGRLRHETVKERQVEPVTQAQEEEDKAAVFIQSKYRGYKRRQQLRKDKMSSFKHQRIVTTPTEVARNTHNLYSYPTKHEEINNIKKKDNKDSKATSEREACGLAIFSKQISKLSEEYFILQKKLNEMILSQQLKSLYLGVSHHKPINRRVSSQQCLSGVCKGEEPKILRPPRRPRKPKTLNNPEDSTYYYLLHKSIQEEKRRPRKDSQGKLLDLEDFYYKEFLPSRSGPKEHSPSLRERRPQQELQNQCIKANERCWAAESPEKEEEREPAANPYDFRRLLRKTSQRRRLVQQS
T38 sequence (Q9UL54 whole entry): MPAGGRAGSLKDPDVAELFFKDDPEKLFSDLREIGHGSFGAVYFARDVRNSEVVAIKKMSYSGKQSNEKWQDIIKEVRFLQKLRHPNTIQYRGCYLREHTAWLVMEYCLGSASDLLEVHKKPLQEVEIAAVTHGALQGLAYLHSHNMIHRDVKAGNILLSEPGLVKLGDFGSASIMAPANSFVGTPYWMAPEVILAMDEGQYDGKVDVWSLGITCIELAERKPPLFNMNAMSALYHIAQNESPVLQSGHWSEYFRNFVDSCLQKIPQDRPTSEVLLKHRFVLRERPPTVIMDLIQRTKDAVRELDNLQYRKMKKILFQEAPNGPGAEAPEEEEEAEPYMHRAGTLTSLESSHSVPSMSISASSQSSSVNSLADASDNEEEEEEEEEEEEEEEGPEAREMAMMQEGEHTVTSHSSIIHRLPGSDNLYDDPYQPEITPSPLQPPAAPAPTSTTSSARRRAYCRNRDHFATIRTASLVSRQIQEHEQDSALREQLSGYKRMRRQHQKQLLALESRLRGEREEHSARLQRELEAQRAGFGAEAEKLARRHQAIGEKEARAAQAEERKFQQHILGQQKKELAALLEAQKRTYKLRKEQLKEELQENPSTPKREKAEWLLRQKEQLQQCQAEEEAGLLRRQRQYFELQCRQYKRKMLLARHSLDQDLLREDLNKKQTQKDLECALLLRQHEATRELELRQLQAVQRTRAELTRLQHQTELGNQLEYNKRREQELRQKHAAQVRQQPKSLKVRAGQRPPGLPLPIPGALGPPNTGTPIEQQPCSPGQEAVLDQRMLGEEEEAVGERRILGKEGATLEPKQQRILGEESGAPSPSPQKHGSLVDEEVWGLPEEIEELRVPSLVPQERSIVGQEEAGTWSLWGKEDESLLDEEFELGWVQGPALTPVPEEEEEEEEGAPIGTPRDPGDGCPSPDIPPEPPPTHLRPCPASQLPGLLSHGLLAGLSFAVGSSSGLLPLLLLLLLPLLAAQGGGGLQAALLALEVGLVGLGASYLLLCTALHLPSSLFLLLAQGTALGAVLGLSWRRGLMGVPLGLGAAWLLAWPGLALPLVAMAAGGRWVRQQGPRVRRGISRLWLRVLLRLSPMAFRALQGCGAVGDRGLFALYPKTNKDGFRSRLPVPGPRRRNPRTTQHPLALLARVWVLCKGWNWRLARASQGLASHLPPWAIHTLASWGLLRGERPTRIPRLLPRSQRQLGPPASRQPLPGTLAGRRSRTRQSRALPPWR

Compound: O=C1Nc2c(cc([N+](=O)[O-])c3c2CCCC3)C1=NO [Compound 5d, 3-(Hydroxyimino)-5-nitro-1,3,6,7,8,9-hexahydro-2H-benzo[g]indol-2-one]
- inhibition at 10 µM (ACVR1): 2%
- inhibition at 10 µM (ACVR2B): 25%
- inhibition at 10 µM (AKT3): 9%
- inhibition at 10 µM (ARK5): 24%
- inhibition at 10 µM (AURKB): 90.7%
- inhibition at 10 µM (CAMK4): 7%
- inhibition at 10 µM (CDK4-cyclinD1): 9%
- inhibition at 10 µM (CDK7): 95.8%
- inhibition at 10 µM (DDR1): 0%
- inhibition at 10 µM (DDR2): 0%
- inhibition at 10 µM (DRAK2): 78%
- inhibition at 10 µM (EPHA3): 45%
- inhibition at 10 µM (EPHB4): 0%
- inhibition at 10 µM (ERK4): 0%
- inhibition at 10 µM (FLT3-autoinhibited): 4%
- inhibition at 10 µM (GRK2): 48%
- inhibition at 10 µM (IRAK3): 32%
- inhibition at 10 µM (LATS2): 28%
- inhibition at 10 µM (LRRK2 (G2019S)): 89%
- inhibition at 10 µM (MARK4): 20%
- inhibition at 10 µM (MEK3): 94%
- inhibition at 10 µM (MEK6): 3%
- inhibition at 10 µM (MET (Y1235D)): 25%
- inhibition at 10 µM (MST1R): 0%
- inhibition at 10 µM (MYO3A): 51%
- inhibition at 10 µM (NDR2): 13%
- inhibition at 10 µM (NEK2): 16%
- inhibition at 10 µM (PAK4): 43%
- inhibition at 10 µM (PCTK1): 5%
- inhibition at 10 µM (PCTK2): 0%
- inhibition at 10 µM (PIK3C2G): 43%
- inhibition at 10 µM (PIM3): 95.8%
- inhibition at 10 µM (PKAC-α): 0%
- inhibition at 10 µM (PYK2): 0%
- inhibition at 10 µM (RIPK5): 17%
- inhibition at 10 µM (SNARK): 90%
- inhibition at 10 µM (SRC): 28%
- inhibition at 10 µM (TAOK2): 37%
- inhibition at 10 µM (TNIK): 65%
- inhibition at 10 µM (WNK2): 0%
- inhibition at 10 µM (YES): 26%
